The target of one assay is T1, cytosolic PLA2 (Bos taurus, UniProt A4IFJ5).
T1 construct: endogenous in cells; host or cells: intact bovine platelets
T1 sequence (A4IFJ5 1-749): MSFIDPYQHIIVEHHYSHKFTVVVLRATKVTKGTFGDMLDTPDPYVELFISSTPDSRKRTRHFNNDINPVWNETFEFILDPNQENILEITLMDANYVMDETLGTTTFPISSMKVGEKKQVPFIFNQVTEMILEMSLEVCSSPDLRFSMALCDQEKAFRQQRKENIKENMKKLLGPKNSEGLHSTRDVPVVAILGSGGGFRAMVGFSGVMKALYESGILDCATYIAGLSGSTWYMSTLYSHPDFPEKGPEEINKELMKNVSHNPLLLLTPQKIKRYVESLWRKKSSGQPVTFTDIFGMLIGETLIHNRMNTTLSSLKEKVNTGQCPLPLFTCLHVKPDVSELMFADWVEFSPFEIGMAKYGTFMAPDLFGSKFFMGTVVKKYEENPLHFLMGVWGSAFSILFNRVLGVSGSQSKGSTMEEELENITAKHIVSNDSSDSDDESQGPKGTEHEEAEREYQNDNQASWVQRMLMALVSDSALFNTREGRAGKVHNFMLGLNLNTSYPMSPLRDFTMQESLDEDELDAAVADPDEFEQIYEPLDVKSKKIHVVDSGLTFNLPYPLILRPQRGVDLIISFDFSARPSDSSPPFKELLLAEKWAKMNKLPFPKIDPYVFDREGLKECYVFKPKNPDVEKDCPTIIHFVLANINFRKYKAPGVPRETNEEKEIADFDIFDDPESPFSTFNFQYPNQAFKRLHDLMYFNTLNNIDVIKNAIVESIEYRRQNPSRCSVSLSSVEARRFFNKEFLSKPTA
In words: Inhibition of cytosolic phospholipase A2 in intact bovine platelets stimulated with calcium ionophore A23187; released arachidonic acid determined by reversed phase HPLC with UV detection. The assay is classed as cell-based. The settings on record: A23187 stimulation, 5,8,11,14-eicosatetraynoic acid added, test substances normally dissolved in DMSO. From the text:
The efficacy of the compounds according to the invention can be determined on the basis of the inhibition of phospholipase A2. For this purpose, the phospholipaase A2 in intact bovine platelets is stimulated with calcium ionophore A23187, and thus the release of arachidonic acid from the membrane phospholipids is induced. In order to prevent metabolism of the enzyme product arachidonic acid by the cyclooxygenase pathway and the 12-lipoxygenase pathway, in this case the dual cyclooxygenase/12-lipoxygenase inhibitor 5,8,11,14-eicosatetraynoic acid is added. After purification by solid phase extraction, the released arachidonic acid is determined by reversed phase HPLC with UV detection. The inhibition of the enzyme by a test substance is evident from the ratio between the amounts of arachidonic acid formed in the presence and in the absence of the test substance. Further details of the test system are to be found in Example 15.
The efficacy of the compounds according to the invention can be determined from the inhibition of phospholipase A2. The assay method used has already been described (see Lehr M., In-vitro assay for the evaluation of phospholipase A2 inhibitors using bovine platelets and HPLC with UV-detection. Pharm.Pharmacol. Lett. 1992, 2, 176-179). The test substances were normally dissolved in DMSO.

For another assay, the system named is mice. The settings on record: cited from earlier work.

We go through 5 molecules from patent US6310217A, “Acylpyrroledicarboxylic acids and acylindoledicarboxylic acids and their derivatives as inhibitors of cytosolic phospholipase A2” (Merckle GmbH, priority 1996, dated 2001).

Molecules are shown by their SMILES.

With `CCCCCCCCCCCC(=O)c1c(C)c(CC(=O)O)n(Cc2cccc(CCC(=O)O)c2)c1C` [Example 3, 3-(3-{[2-(Carboxymethyl)-4-dodecanoyl-3,5-dimethyl-pyrrol-1-yl]methyl}phenyl)propionic acid], the IC50 (usually the concentration at which inhibition is half-maximal) at cytosolic PLA2 is 3 µM.

For `Cn1c(C(=O)O)ccc1C(=O)C=Cc1ccccc1` [1-methyl-5-(3-phenylacryloyl)pyrrol-2-ylformic acid], the analgesic effect entry with mice is given as “analgesic effect”.

On to `CCCCCCCCCCCC(=O)c1c(C)c(CC(=O)O)n(Cc2cccc(/C=C/C(=O)O)c2)c1C` [Example 2, (E)-3-{[2-(Carboxymethyl)-4-dodecanoyl-3,5-dimethyl-pyrrol-1-yl]methyl}cinnamic acid], for which the 50% inhibitory concentration (IC50) on cytosolic PLA2 stood at 4.6 µM.

On to `CCCCCCCCCCCC(=O)c1c(C(=O)O)n(CCOc2cccc(CC(=O)O)c2)c2ccccc12` [Example 13, 1-{2-[3-(carboxymethyl)phenoxy]ethyl}-3-dodecanoyl-indole-2-carboxylic acid], for which, on cytosolic PLA2, the half-maximal inhibitory concentration (IC50) was 1.6 µM.

For `CCCCCCCCCCCC(=O)c1c(C(=O)O)n(CCOc2ccc(CC(=O)O)cc2)c2ccccc12` [Example 14, 1-{2-[4-(Carboxymethyl)phenoxy]ethyl}-3-dodecanoyl-indole-2-carboxylic acid], on cytosolic PLA2, the IC50 came out at 1.6 µM.
